The values below come from US20240058329A1, “OPHTHALMIC COMPOSITION OF RIFAMYCIN, AND USE THEREOF” (BNC KOREA CO., LTD., priority 2020, published 2024).

For data set [1] the following is noted: Rabbit; 0.5%, 50 μL, 250 μg; Sigurdsson et al. (2007); cited from earlier work.
A short description of data set [2]: Retina exposure level of rifampicin after application of topical eye drops (3 or 10 drops), LC/MS. The format is in vivo, Sprague-Dawley rats. Conditions: for Drug amount detected in retina: Rat, 0.25%, present study; for Rifampicin extracted from retina: rat, average of n = 3. As to the method:
The remaining two rats received the same application, but 10 drops of the eye drops, in each eye under isoflurane sedation. A single drop contained 5 μL of the above-described formulation, and application of each drug drop was carried out with intervals of 30 minutes. After the eye drop application, the retina was excised from each rat under a dissection microscope. In addition, “non-treated” negative controls were used, and the retina was excised from two rats without performing any treatments on the rats. The retina was placed in a 1.5-ml microcentrifuge tube (1 retina/tube), and was fully washed with DPBS. After completion of the washing procedures, the retinal tissues in the microcentrifuge tube were frozen in dry ice, and were then preserved for quantification by LC/MS analysis.

The conditions of data set [3]: 3% rifampicin solution, boric acid buffer.
Experimental: In the present example, the pH value was set to be pH 2 to 12, and the concentration of a nonionic surfactant was set to be 0.001% by weight to 50% by weight. As buffer solutions, a boric acid buffer solution, and a phosphoric acid buffer solution and a citric acid buffer solution were used.
A 50 mM phosphoric acid buffer solution, a 50 mM citric acid buffer solution, or a 25 mM boric acid-borax buffer solution (all of which were final concentrations) was prepared, and thereafter, about 0.9% sodium chloride, about 0.1% EDTA, 0.01% benzalkonium chloride (all of which were final concentrations), and various concentrations of nonionic surfactants (Tween 80 or Polyoxyethylene (7) alkyl (sec-C11-15) ethers) were mixed into the solution. […] In the case of using a citric acid buffer solution, the pH value of the mixed solution was adjusted using hydrochloric acid under conditions of pH 2.6 or less. In the case of using boric acid, the pH value was adjusted using hydrochloric acid under conditions of pH 5.7 or less. […] The thus prepared solutions were continuously blended for about 2 hours, and the pH value thereof was measured at 25° C.
For data set [4], the system named is oxygen-induced retinopathy rat models. Description: Neovascularization in retina quantified by capillaries in histology sections. The format is in vivo, Sprague-Dawley rat. Conditions: n = 3, vehicle only control 16.3. The method, then:
Oxygen-induced retinopathy rat models were produced according to the protocols of Yanni et al. (2010) and Dorfmann et al. (2008). Sprague-Dawley rat babies (and their nursing mothers) were exposed to a cycling oxygen environment (80% and 21%, about one day for each) for 15 days after starting from the day of birth (Day 0). On Day 15 (P15), the animals were moved to room air. […] An eye drop formulation shown as Example 1 A in Table 1, or a vehicle only was administered to the eyes of the baby rats every day, for 5 days between P15 and P19, in the morning, about the noon, and in the evening. […] On P20, all of the animals were euthanized, and the retina was visualized as histology sections. In those histology sections, capillaries in the retinal tissues in 3 eye balls (AMD 101 topical application, AMD 101 SC injection administration group, and non-induction of retinopathy) or 5 eye balls (control administration group of a vehicle only) were counted, so that neovascularization was quantified. These eye balls were selected from different animals in the above-described administration groups. Representative images of the histology sections are shown (see FIGS. 1A to 1H).

Each structure is given as a SMILES string. Read-outs that look alike come from different tables or passages of the source. Marks after values point to notes of the source that are not given here.

For the molecule `C[C@@H]1C[C@H]2[C@@H]3CCC4=CC(=O)C=C[C@]4(C)[C@@]3(F)[C@@H](O)C[C@]2(C)[C@@]1(O)C(=O)CO` [Dexamethasone], the “Drug amount detected in retina” value in data set [1] is “About 33 ng/1 g of ng/1 g of retinal tissues”.

`CO[C@H]1/C=C/O[C@@]2(C)Oc3c(C)c(O)c4c(O)c(c(/C=N/N5CCN(C)CC5)c(O)c4c3C2=O)NC(=O)/C(C)=C\C=C\[C@H](C)[C@H](O)[C@@H](C)[C@@H](O)[C@@H](C)[C@H](OC(C)=O)[C@@H]1C` [rifampicin]: the “Drug amount detected in retina” value in data set [2] (3 drops (15 μL, 37.5 μg)) is given as “About 1,288 ng/1 g of ng/1 g of retinal tissues”; in data set [2] (10 drops (50 μL, 125 μg)) it was “About 2,939 ng/1 g of ng/1 g of retinal tissues”. The “Rifampicin extracted from retina” value in data set [2] (3 drops (5 μL each, 30 min intervals) of 0.25% rifampicin eye drops (Example 1A) per eye) was 1,288* ng/1 g of tissues; in data set [2] (10 drops (5 μL each, 30 min intervals) of 0.25% rifampicin eye drops (Example 1A) per eye), 2,939* ng/1 g of tissues. For the same molecule, the “pH at which solubilization of rifampicin does not need addition of a surfactant” value ([…]) is at least 8.5. Besides, for the setting “pH range of pH 2 to pH 12”, the “rifampicin concentration whose solubilization did not need addition of a surfactant” value is recorded as at most 0.002 % by weight. The “nonionic surfactant addition by which the composition is solubilized (from relational expression)” value is reported as “about 8.2%” in data set [3] (pH 3.0) and “about 10.7%” in data set [3] (pH 4.0). The “Average numbers of capillaries in high power field per eye” value is given as 7.78 in data set [4] (0.25% AMD101 topical eye drop (Example 1A), three times a day P15 to P19) and 9.28 in data set [4] (0.5% AMD101 SC injection (Example 6A), 20 mg/Kg once a day P15 to P19).
